This is an account of results in ChEMBL document CHEMBL6134909 (Eur J Med Chem, 2025).

SMILES strings stand for the structures. Activity calls are given as the source filed them. The calls are words filed in the database; no cut-off is given here.

Assay [1] relates to Influenza A virus. The experiment in a line: Anti-viral activity against Influenza A virus H3N2 A/Hong Kong/11/1968 infected in human A549 cells assessed as decrease in viral replication at 1 uM incubated with compound and virus for 1 hr followed by inoculum removal and media replacement with compound measured after 48 hrs by extracting viral supernatant from cells and transferring supernatant to MDCK cells for measuring plaque formation. Format: functional, organism-based. The conditions noted are these: time 49.0 hrs.

In assay [2] the test system is Influenza A virus. The assay is described as follows: Anti-viral activity against Influenza A virus H3N2 A/Hong Kong/11/1968 infected in human A549 cells assessed as log reduction in viral titer at 1 uM incubated with compound and virus for 1 hr followed by inoculum removal and media replacement with compound measured after 48 hrs by extracting viral supernatant from cells and transferring supernatant to MDCK cells for measuring plaque formation. Format: functional. The conditions noted are these: time 49 hrs.

With `Clc1cnc2nc(-c3ccccc3)c(NC3CCCCC3)n2c1`, the result in the assay with Influenza A virus [1] was Active. For the same compound, in the assay on Influenza A virus [2], the log10PFU/ml was 1.5.
The matching figures for `CCOC(=O)c1c(CSc2ccccc2)n(C)c2cc(Br)c(O)c(CN(C)C)c12` [UMIFENOVIR]: “Active” and 1.5.
Consider `Cc1cc(C)n2c(NC3CCCCC3)c(-c3ccnc(Cl)c3)nc2n1`, for which the result in the assay on Influenza A virus [1] was Active.
With `Fc1cc(OCc2ccc(C(F)(F)F)cc2)ccc1-c1nc2ncccn2c1NC1CCCCC1`, the result with Influenza A virus [1] was Active. In addition, the log10PFU/ml with Influenza A virus [2] came to 1.5.
In the case of `COc1ccc(-c2nc3ncccn3c2NC2CCCCC2)cc1`, the result with Influenza A virus [1] was Active.
On the same count and under the same terms, in the case of `Fc1ccc(-c2nc3ncccn3c2NC2CCCCC2)cc1F` it was “Active”.
In the case of `COc1cc(OC)cc(-c2nc3ncccn3c2NC2CCCCC2)c1`, the result in the assay on Influenza A virus [1] was Active. In addition, in the assay with Influenza A virus [2], the log10PFU/ml is 1.5.
On to `Fc1ccc(-c2nc3ncccn3c2NC2CCCCC2)cc1N1CCOCC1`, for which, in the assay on Influenza A virus [1], the outcome was Active. Also, the log10PFU/ml with Influenza A virus [2] worked out at 1.5.
The matching figures for `Oc1ccc(-c2nc3ncccn3c2NC2CCCCC2)c(F)c1`: “Active” and 1.5.
With `CN1CCN(c2ccc(-c3nc4ncc(Cl)cn4c3NC3CCCCC3)c(F)c2)CC1`, the outcome in the assay on Influenza A virus [1] was Active.
For `COCOc1ccc(-c2nc3ncccn3c2NC2CCCCC2)c(F)c1`, in the assay with Influenza A virus [1], the result was Active. For the same compound, the log10PFU/ml with Influenza A virus [2] amounted to 1.5.
